Columns and labels:
[1] = design: method as in PMID 30718102; settings: cited from earlier work
KDR [h] = tested on: KDR [h]; design: method as in unpublished data; settings: 0.2 μM in vitro; one range for all five kinases; ref unpublished data; cited from earlier work
phosphorylation of c-MET = settings: patient-derived xenograft tumors and MET-amplified cell lines, dose-dependent; cited from earlier work
DDR2[h] = tested on: DDR2[h]; design: method as in unpublished data; settings: 0.2 μM in vitro; one range for all five kinases; ref unpublished data; cited from earlier work
c-MET [h] = tested on: c-MET [h]; design: method as in unpublished data; settings: 0.2 μM in vitro; one range for all five kinases; ref unpublished data; cited from earlier work
[2] = design: species or system human (Chinese patients); settings: human, in vivo
Method: (§1) For the single-dose PK test in the cycle 0, serial peripheral blood samples were collected at pre-dose and at 0.5, 1, 2, 3, 4, 6, 8, 12, 16, 24, 48, 72, and 144 h post-dose. For the continuous dose PK test in the cycle 1, serial peripheral blood samples were collected at pre-dose on days 8, 15, 22, and 28, and at 0.5, 1, 2, 3, 4, 5, 6, 8, 12, 16, 24, 48, and 72 h post-dose on day 28. All serial peripheral blood samples were collected in heparin sodium anticoagulation tubes and centrifuged at 1900g for 10 min before storage at − 80 °C until analysis.

VEGFR = tested on: VEGFR; design: method as in unpublished data; settings: preclinical; ref unpublished data; read-out: IC50 against VEGFR; cited from earlier work
AXL kinase = settings: read-out: IC50 against AXL kinase; cited from earlier work
[3] = tested on: advanced non-small cell lung cancer; assay: Tumor response assessed by investigators per RECIST v1.1; format: in vivo, human (Chinese patients); settings: for Partial remission (PR) / Progressive disease (PD): number of patients (%)
EBC-1 cell line = settings: read-out: IC50 against the growth of lung cancer EBC-1 cell line; cited from earlier work
Ron [h] = tested on: Ron [h]; design: method as in unpublished data; settings: 0.2 μM in vitro; one range for all five kinases; ref unpublished data; cited from earlier work
[4] = tested on: lung adenocarcinoma patient-derived xenograft (PDX); settings: with overexpression of c-MET; ref our preclinical study; cited from earlier work
[5] = biological target: wild-type c-Met tyrosine kinase; settings: enzymatic assay; read-out: IC50 against wild-type c-Met tyrosine kinase; cited from earlier work
[6] = Continuous dose (QD) pharmacokinetics (cycle 1, day 28) in patients; format: in vivo, human (Chinese patients); settings: continuous QD dosing, 100 mg to 800 mg
Method: as §1

AXL [h] = tested on: AXL [h]; design: method as in unpublished data; settings: 0.2 μM in vitro; one range for all five kinases; ref unpublished data; cited from earlier work
[7] = 100 mg/qd group (printed 1 0 mg/qd), n = 4
[8] = 20 patients, AEs reported by > 20% of patients
[9] = safety population N = 20, 100–800 mg qd, number of patients (%)

COc1cc2nccc(Oc3ccc(NC(=O)C4(C(=O)Nc5ccc(F)cc5)CC4)cc3)c2cc1OC [cabozantinib]
rate of discontinuation due to an AE ([1]; Japanese NSCLC patients, phase 1): 10%
AE: diarrhea [1]: 78%
AE: hypertension [1]: 87%
AE: increased ALT [1]: 95%
AE: increased AST [1]: 95%
AE: palmar-plantar erythrodysesthesia [1]: 100%
patients who experienced ≥ grade 3 AEs [1]: 70%
patients with dose reduction ([1]; dose-escalation cohorts, about): 30–40%
patients with discontinuation ([1]; dose-escalation cohorts): 13%

O=C(Nc1ccc(Oc2ccnc3c2CCN3)c(F)c1)c1c[nH]cc(-c2ccc(F)cc2)c1=O
inhibition of KDR [h] (KDR [h]): 88–100%
phosphorylation of c-MET and downstream signaling targets (ERK, AKT) (phosphorylation of c-MET): inhibits the phosphorylation of c-MET
inhibition of DDR2[h] (DDR2[h]): 88–100%
inhibition of c-MET [h] (c-MET [h]): 88–100%
dose at which exposure (AUC and Cmax) reached saturation [2]: 600 mg
dose proportionality of maximal plasma concentration (Cmax) [2]: increased obviously less than dose proportionally
dose proportionality of plasma exposure (AUC0–last) [2]: increased slightly less than dose proportionally
mean t1/2 (half-life) [2]: 7.9 to 37.3 h
IC50 (VEGFR): 30 nM
IC50 (AXL kinase): 9 nM
Disease control rate, % (95%CI) [3, 7]: 0 (NA, NA) %
Objective remission rate, % (95%CI) [3, 7]: 0 (NA, NA) %
Partial remission (PR) [3, 7]: 0
Progressive disease (PD) [3, 7]: 3 (100.0%)
Disease control rate, % (95%CI) ([3]; 200 mg/qd group, n = 3): 66.7 (9.43, 99.16) %
Objective remission rate, % (95%CI) ([3]; 200 mg/qd group, n = 3): 0 (NA, NA) %
Partial remission (PR) ([3]; 200 mg/qd group, n = 3): 0
Progressive disease (PD) ([3]; 200 mg/qd group, n = 3): 1 (33.3%)
Disease control rate, % (95%CI) ([3]; 300 mg/qd group, n = 3): 66.7 (9.43, 99.16) %
Objective remission rate, % (95%CI) ([3]; 300 mg/qd group, n = 3): 0 (NA, NA) %
Partial remission (PR) ([3]; 300 mg/qd group, n = 3): 0
Progressive disease (PD) ([3]; 300 mg/qd group, n = 3): 1 (33.3%)
Disease control rate, % (95%CI) ([3]; 450 mg/qd group, n = 4): 50.0 (6.76, 93.24) %
Objective remission rate, % (95%CI) ([3]; 450 mg/qd group, n = 4): 0 (NA, NA) %
Partial remission (PR) ([3]; 450 mg/qd group, n = 4): 0
Progressive disease (PD) ([3]; 450 mg/qd group, n = 4): 2 (50.0%)
Disease control rate, % (95%CI) ([3]; 600 mg/qd group, n = 3): 66.7 (9.43, 99.16) %
Objective remission rate, % (95%CI) ([3]; 600 mg/qd group, n = 3): 0 (NA, NA) %
Partial remission (PR) ([3]; 600 mg/qd group, n = 3): 0
Progressive disease (PD) ([3]; 600 mg/qd group, n = 3): 1 (33.3%)
Disease control rate, % (95%CI) ([3]; 800 mg/qd group, n = 3): 100.0(29.24,100.0) %
Objective remission rate, % (95%CI) ([3]; 800 mg/qd group, n = 3): 33.3 (0.84, 90.57) %
Partial remission (PR) ([3]; 800 mg/qd group, n = 3): 1 (33.3%)
Progressive disease (PD) ([3]; 800 mg/qd group, n = 3): 0
patients with tumor burden reduced from baseline ([3]; 19 evaluable patients): 53%
ORR ([3]; 19 evaluable patients, text (95% CI 0.1–26%)): 5%
DCR ([3]; 19 evaluable patients, text (95% CI 34–80%)): 58%
Disease control rate, % (95%CI) ([3]; Total, N = 20 (19 evaluable)): 57.9 (33.50, 79.75) %
Objective remission rate, % (95%CI) ([3]; Total, N = 20 (19 evaluable)): 5.3 (0.13, 26.03) %
Partial remission (PR) ([3]; Total, N = 20 (19 evaluable)): 1 (5.3%)
Progressive disease (PD) ([3]; Total, N = 20 (19 evaluable)): 8 (42.1%)
number of patients with a partial response ([3]; among 19 evaluable patients): 1
number of patients with stable disease ([3]; among 19 evaluable patients): 10 patients
DCR ([3]; patients (n = 11) with MET gene amplification or c-MET overexpression, exploratory): 82%
ORR ([3]; patients without MET dysregulation (eight patients), exploratory): 0%
IC50 (EBC-1 cell line): 120 nM
inhibition of Ron [h] (Ron [h]): 88–100%
tumor growth of lung adenocarcinoma [4]: significantly inhibited tumor growth
AEs (any grades) leading to dose adjustment (600 mg/qd group): one patient
AEs (any grades) leading to dose discontinuation (600 mg/qd group n = 2, 800 mg/qd group n = 2): four patients
TRAE of grade 3 or higher: hypertension (20 patients): 15%
TRAE of grade 3 or higher: laryngeal pain (20 patients): 5%
TRAE of grade 3 or higher: pulmonary embolism (20 patients): 5%
TRAE: constipation (20 patients): 30%
TRAE: dysgeusia (20 patients): 40%
TRAE: increased ALT / ALT elevation (20 patients): 40%
gastrointestinal symptoms such as vomiting and diarrhea, frequency reported (20 patients): ≤ 10%
patients experiencing grade 3 AEs (20 patients): 45%
rate of dose reduction due to AEs (20 patients): 5%
patients with TRAEs of grade 3 or higher during treatment (20 patients (300 mg/qd n = 1; 600 mg/qd n = 2; 800 mg/qd n = 1)): 20%
patients with treatment-related AEs (20 patients, 100–800 mg qd): 85%
TRAE: palmar-plantar erythrodysesthesia syndrome (20 patients, abstract): 15%
TRAE: hypertension (20 patients, any grade): 25%
AE (any cause): constipation [8]: 40%
AE (any cause): dysgeusia [8]: 40%
AE (any cause): hypertension [8]: 25%
AE (any cause): increased alanine transaminase (ALT) [8]: 40%
AE (any cause): increased conjugated bilirubin [8]: 25%
AE (any cause): increased hemobilirubin [8]: 25%
AE (any cause): nausea [8]: 25%
dose-limiting toxicity (DLT) (doses up to 800 mg once daily): No dose-limiting toxicity (DLT) was observed
maximum tolerated dose (MTD) (maximum dose investigated 800 mg QD): not reached
serious adverse events (pulmonary embolism, 600 mg/qd group, probably related to study treatment): One serious adverse event
Treatment-related adverse event: Constipation, Grade ≥ 3 [9]: 0
Treatment-related adverse event: Constipation, any grade [9]: 6 (30%)
Treatment-related adverse event: Dysgeusia, Grade ≥ 3 [9]: 0
Treatment-related adverse event: Dysgeusia, any grade [9]: 8 (40%)
Treatment-related adverse event: Hypertension, Grade ≥ 3 [9]: 3 (15%)
Treatment-related adverse event: Hypertension, any grade [9]: 5 (25%)
Treatment-related adverse event: Increase AST, Grade ≥ 3 [9]: 0
Treatment-related adverse event: Increase AST, any grade [9]: 4 (20%)
Treatment-related adverse event: Increased ALT, Grade ≥ 3 [9]: 0
Treatment-related adverse event: Increased ALT, any grade [9]: 8 (40%)
Treatment-related adverse event: Increased conjugated bilirubin, Grade ≥ 3 [9]: 0
Treatment-related adverse event: Increased conjugated bilirubin, any grade [9]: 5 (25%)
Treatment-related adverse event: Increased creatine phosphokinase, Grade ≥ 3 [9]: 0
Treatment-related adverse event: Increased creatine phosphokinase, any grade [9]: 3 (15%)
Treatment-related adverse event: Increased gamma-glutamyltransferase, Grade ≥ 3 [9]: 0
Treatment-related adverse event: Increased gamma-glutamyltransferase, any grade [9]: 4 (20%)
Treatment-related adverse event: Increased hemobilirubin, Grade ≥ 3 [9]: 0
Treatment-related adverse event: Increased hemobilirubin, any grade [9]: 5 (25%)
Treatment-related adverse event: Increased unconjugated bilirubin, Grade ≥ 3 [9]: 0
Treatment-related adverse event: Increased unconjugated bilirubin, any grade [9]: 3 (15%)
Treatment-related adverse event: Palmar-plantar erythrodysesthesia, Grade ≥ 3 [9]: 0
Treatment-related adverse event: Palmar-plantar erythrodysesthesia, any grade [9]: 3 (15%)
Treatment-related adverse event: Papulosis, Grade ≥ 3 [9]: 0
Treatment-related adverse event: Papulosis, any grade [9]: 2 (10%)
patients with drug discontinuation due to treatment-related AE (two patients in 600 mg/qd group and one in 800 mg/qd group): 15%
IC50 [5]: 6 nM
time after which steady-state concentration was reached [6]: 28 days
inhibition of AXL [h] (AXL [h]): 88–100%
